The target in assay [1] is Acetylcholinesterase (Electrophorus electricus, UniProt O42275). As to the kind of experiment: AChE and BuChE Inhibition Assay. The note with it: pH 8; 25 °C. The protocol: (§1) This spectrophotometric assay is based on the reaction of 5,5-dithio-bis(2-nitrobenzoic)acid (DTNB) with thiocholine to yield a colored product. Shimadzu (Kyoto, Japan) UV-1700 UV-vis spectrophotometer was used to record the measurements. The enzyme solutions were prepared at 2.5 units/mL concentrationin 1% gelatin solution. BChE/AChE and compound solutions (50 μL each) in 2% DMSO at 10^-1-10^-6 mM concentration were added to 3 mL phosphate buffer (pH 8 &plusnm; 0.1)followed by incubation for 5 min at 25 °C. The reaction was commenced by the addition of acetylthiocholine iodide (ATC) (10 μL) and DTNB (50 μL) to the enzyme-inhibitor mixture. […] The blank reading contained 10 μL substrate, 50 μL DTNB, 50 μL (2%) DMSO, and 3 mL buffer. The reaction was performed in triplicate.
Acetylcholinesterase, sequence (O42275 whole entry): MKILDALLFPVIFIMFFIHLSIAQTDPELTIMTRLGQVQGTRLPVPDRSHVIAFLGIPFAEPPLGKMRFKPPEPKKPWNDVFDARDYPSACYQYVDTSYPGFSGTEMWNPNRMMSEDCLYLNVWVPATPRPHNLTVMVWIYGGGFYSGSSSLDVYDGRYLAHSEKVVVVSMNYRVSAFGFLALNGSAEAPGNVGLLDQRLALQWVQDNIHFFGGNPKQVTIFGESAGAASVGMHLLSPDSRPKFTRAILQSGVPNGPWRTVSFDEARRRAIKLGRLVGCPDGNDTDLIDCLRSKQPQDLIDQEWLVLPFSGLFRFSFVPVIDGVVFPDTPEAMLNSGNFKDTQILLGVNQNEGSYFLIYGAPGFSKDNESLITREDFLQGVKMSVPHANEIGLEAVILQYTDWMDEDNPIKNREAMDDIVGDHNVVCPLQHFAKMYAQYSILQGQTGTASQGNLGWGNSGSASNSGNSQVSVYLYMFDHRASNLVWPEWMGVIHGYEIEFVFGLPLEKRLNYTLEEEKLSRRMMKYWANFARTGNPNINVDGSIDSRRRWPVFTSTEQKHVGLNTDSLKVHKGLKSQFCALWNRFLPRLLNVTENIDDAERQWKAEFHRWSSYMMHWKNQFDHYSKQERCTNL

Assay [2] has as its target Carboxylic ester hydrolase (Equus caballus, UniProt Q9N1N9). Kind of assay: AChE and BuChE Inhibition Assay. As to conditions: pH 8; 25 °C. As to the method: as §1
The target in assay [3] is T1, Amine oxidase [flavin-containing] A (Rattus norvegicus, UniProt P21396).
T1 sequence (P21396 whole entry): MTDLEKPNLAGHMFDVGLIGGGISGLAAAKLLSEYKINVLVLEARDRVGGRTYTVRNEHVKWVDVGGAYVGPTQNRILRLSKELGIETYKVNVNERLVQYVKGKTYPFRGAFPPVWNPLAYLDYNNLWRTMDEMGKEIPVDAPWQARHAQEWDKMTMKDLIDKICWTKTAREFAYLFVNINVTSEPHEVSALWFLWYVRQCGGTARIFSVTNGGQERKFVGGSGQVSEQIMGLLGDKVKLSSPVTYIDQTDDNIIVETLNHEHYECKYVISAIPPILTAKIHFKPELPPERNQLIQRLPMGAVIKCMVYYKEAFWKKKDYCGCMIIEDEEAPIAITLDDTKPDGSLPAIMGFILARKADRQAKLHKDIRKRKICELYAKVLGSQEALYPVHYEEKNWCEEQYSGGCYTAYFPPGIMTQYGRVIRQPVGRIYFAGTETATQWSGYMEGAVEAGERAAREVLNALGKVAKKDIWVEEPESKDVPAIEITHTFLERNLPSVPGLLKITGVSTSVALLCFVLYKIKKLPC
Kind of assay: Monoamine Oxidase Assay. The note with it: pH 7.4; 38 °C.

The target in assay [4] is T2, Amine oxidase [flavin-containing] B (Rattus norvegicus, UniProt P19643).
T2 sequence (P19643 whole entry): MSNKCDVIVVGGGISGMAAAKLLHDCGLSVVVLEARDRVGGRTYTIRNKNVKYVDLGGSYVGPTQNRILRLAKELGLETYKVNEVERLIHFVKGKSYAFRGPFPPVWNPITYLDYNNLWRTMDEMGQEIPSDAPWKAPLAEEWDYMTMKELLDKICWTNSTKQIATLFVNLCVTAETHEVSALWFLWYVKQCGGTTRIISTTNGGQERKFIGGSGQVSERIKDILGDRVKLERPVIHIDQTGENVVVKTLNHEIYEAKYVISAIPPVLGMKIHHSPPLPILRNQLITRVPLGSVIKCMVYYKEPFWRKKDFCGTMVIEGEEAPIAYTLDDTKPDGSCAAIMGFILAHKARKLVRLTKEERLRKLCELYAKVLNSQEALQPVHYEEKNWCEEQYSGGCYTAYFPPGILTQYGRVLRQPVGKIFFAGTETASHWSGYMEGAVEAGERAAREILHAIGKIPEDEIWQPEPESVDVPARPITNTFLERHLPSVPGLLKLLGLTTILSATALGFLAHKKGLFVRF
As to the kind of experiment: Monoamine Oxidase Assay. The note with it: pH 7.4; 38 °C.

The structures appear in SMILES notation.

Carboxylic ester hydrolase, sequence (Q9N1N9 whole entry): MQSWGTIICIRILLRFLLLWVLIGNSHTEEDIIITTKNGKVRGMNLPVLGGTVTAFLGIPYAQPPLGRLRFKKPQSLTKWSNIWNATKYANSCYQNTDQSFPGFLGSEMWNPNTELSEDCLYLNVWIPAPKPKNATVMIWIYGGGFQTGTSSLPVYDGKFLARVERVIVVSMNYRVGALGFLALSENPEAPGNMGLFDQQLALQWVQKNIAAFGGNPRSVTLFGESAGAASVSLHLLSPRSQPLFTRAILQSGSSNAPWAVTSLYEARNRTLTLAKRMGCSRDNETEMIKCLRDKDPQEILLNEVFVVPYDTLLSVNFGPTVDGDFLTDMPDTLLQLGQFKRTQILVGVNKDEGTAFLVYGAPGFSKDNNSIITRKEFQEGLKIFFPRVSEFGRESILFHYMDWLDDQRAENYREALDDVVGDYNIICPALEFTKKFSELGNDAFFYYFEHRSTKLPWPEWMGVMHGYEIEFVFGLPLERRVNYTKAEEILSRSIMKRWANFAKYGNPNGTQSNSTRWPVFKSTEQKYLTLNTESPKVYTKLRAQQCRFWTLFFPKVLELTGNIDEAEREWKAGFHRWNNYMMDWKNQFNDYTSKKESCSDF

`COc1ccc(/C=C2\CCc3ccc([N+](=O)[O-])cc3C2=O)c(Cl)c1OC` [2-(2-Chloro-3,4-dimethoxy-benzylidene)-7-nitro-tetralone (3af)]: the half-inhibitory concentration (IC50) in assay [1] is 2.92 µM; in assay [2], 17.5 µM; in assay [3], 1.24 µM; in assay [4], 2.9 µM.

For `COc1cccc(/C=C2\CCc3ccc(Br)cc3C2=O)c1Cl` [(2E)-7-bromo-2-[(2-chloro-3-methoxyphenyl)methylidene]-1,2,3,4-tetrahydronaphthalen-1-one (3y)], the half-maximal inhibitory concentration (IC50) in assay [1] was > 100 µM; in assay [2] it was > 100 µM; in assay [3], > 100 µM; in assay [4] it was 67.9 µM.

`COc1ccc(/C=C2\CC(C)c3ccccc3C2=O)c(Cl)c1OC` (stereo not drawn) [(2E)-2-[(2-chloro-3,4-dimethoxyphenyl)methylidene]-4-methyl-1,2,3,4-tetrahydronaphthalen-1-one (3e)]: the IC50 was 0.12 µM in assay [1], 27.2 µM in assay [2], 8.9 µM in assay [3] and 1.9 µM in assay [4].

On to `COc1cccc(/C=C2\CCc3ccc(Cl)cc3C2=O)c1Cl` [(2E)-7-chloro-2-[(2-chloro-3-methoxyphenyl)methylidene]-1,2,3,4-tetrahydronaphthalen-1-one (3j)], for which the IC50 in assay [1], in assay [2], in assay [3] and in assay [4] was > 100 µM each time.

Regarding `COc1cc(/C=C2\CCc3c(O)cccc3C2=O)c(Br)c(OC)c1OC` [(2E)-2-[(2-bromo-3,4,5-trimethoxyphenyl)methylidene]-5-hydroxy-1,2,3,4-tetrahydronaphthalen-1-one (3i)], the IC50 is > 100 µM in assay [1], 76.9 µM in assay [2], > 100 µM in assay [3] and 37.2 µM in assay [4].

For `COc1ccc2c(c1)CC/C(=C\c1ccc(OC)c(OC)c1Cl)C2=O` [(2E)-2-[(2-chloro-3,4-dimethoxyphenyl)methylidene]-6-methoxy-1,2,3,4-tetrahydronaphthalen-1-one (3n)], the half-inhibitory concentration (IC50) in assay [1] was 14.6 µM; in assay [2] it was 22.9 µM; in assay [3], 47.2 µM; in assay [4], 19.2 µM.

Consider `COc1cccc(/C=C2\CC(C)c3ccccc3C2=O)c1Cl` (stereo not drawn) [(2E)-2-[(2-chloro-3-methoxyphenyl)methylidene]-4-methyl-1,2,3,4-tetrahydronaphthalen-1-one (3d)], for which the IC50 was found to be 1.9 µM in assay [1], 49.9 µM in assay [2], 10.2 µM in assay [3] and 3.2 µM in assay [4].

On to `COc1ccc(OC)c2c1CC/C(=C\c1cc(OC)c(OC)c(OC)c1Br)C2=O` [2-(2-Bromo-3,4,5-trimethoxy-benzylidene)-5,8-dimethoxy-tetralone (3x)], for which the IC50 in assay [1] was 0.27 µM; in assay [2], 9.8 µM; in assay [3] it was > 100 µM; in assay [4], > 100 µM.

On to `COc1ccc(/C=C2\CCc3ccc(Cl)cc3C2=O)c(Cl)c1OC` [(2E)-7-chloro-2-[(2-chloro-3,4-dimethoxyphenyl)methylidene]-1,2,3,4-tetrahydronaphthalen-1-one (3k)], for which the IC50 in assay [1] is > 100 µM; in assay [2], 56.7 µM; in assay [3] it was > 100 µM; in assay [4] it was > 100 µM.

As for `COc1cccc(/C=C2\CCc3c(OC)cccc3C2=O)c1Cl` [(2E)-2-[(2-chloro-3-methoxyphenyl)methylidene]-5-methoxy-1,2,3,4-tetrahydronaphthalen-1-one (3p)], the IC50 is 89.5 µM in assay [1], > 100 µM in assay [2], > 100 µM in assay [3] and 78.9 µM in assay [4].

For the compound `COc1cc(/C=C2\CCc3ccccc3C2=O)c(Br)c(OC)c1OC` [(2E)-2-[(2-bromo-3,4,5-trimethoxyphenyl)methylidene]-1,2,3,4-tetrahydronaphthalen-1-one (3c)], the IC50 in assay [1] was 12.4 µM; in assay [2], > 100 µM; in assay [3], 27.3 µM; in assay [4] it was 5.6 µM.

Regarding `COc1cc(/C=C2\CCc3ccc([N+](=O)[O-])cc3C2=O)c(Br)c(OC)c1OC` [2-(2-Bromo-3,4,5-trimethoxy-benzylidene)-7-nitro-tetralone (3ag)], the IC50 in assay [1] was 0.57 µM; in assay [2] it was 6.2 µM; in assay [3] it was 0.99 µM; in assay [4] it was 0.91 µM.

With `COc1ccc2c(c1)CC/C(=C\c1cc(OC)c(OC)c(OC)c1Br)C2=O` [2-(2-Bromo-3,4,5-trimethoxy-benzylidene)-6-methoxy-tetralone (3o)], the IC50 is 1.2 µM in assay [1], 17.5 µM in assay [2], 32.2 µM in assay [3] and 12.4 µM in assay [4].

For the compound `COc1cccc(/C=C2\CCc3ccc([N+](=O)[O-])cc3C2=O)c1Cl` [(2E)-2-[(2-chloro-3-methoxyphenyl)methylidene]-7-nitro-1,2,3,4-tetrahydronaphthalen-1-one (3ae)], the IC50 stood at 9.14 µM in assay [1], 27.9 µM in assay [2], 7.23 µM in assay [3] and 6.8 µM in assay [4].

Take `COc1cccc(/C=C2\CCc3c(O)cccc3C2=O)c1Cl` [(2E)-2-[(2-chloro-3-methoxyphenyl)methylidene]-5-hydroxy-1,2,3,4-tetrahydronaphthalen-1-one (3g)]: the IC50 in assay [1] is > 100 µM; in assay [2], > 100 µM; in assay [3], > 100 µM; in assay [4], 56.4 µM.

As for `COc1ccc2c(c1)CC/C(=C\c1cccc(OC)c1Cl)C2=O` [(2E)-2-[(2-chloro-3-methoxyphenyl)methylidene]-6-methoxy-1,2,3,4-tetrahydronaphthalen-1-one (3m)], the IC50 in assay [1] was 43.9 µM; in assay [2] it was > 100 µM; in assay [3] it was > 100 µM; in assay [4], > 100 µM.

`COc1cc(/C=C2\CC(C)c3ccccc3C2=O)c(Br)c(OC)c1OC` (stereo not drawn) [2-(2-Bromo-3,4,5-trimethoxy-benzylidene)-4-methyl-tetralone (3f)]: the half-inhibitory concentration (IC50) in assay [1] stood at 0.045 µM; in assay [2], 12.5 µM; in assay [3], 0.92 µM; in assay [4], 0.88 µM.

As to `COc1ccc(OC)c2c1CC/C(=C\c1ccc(OC)c(OC)c1Cl)C2=O` [(2E)-2-[(2-chloro-3,4-dimethoxyphenyl)methylidene]-5,8-dimethoxy-1,2,3,4-tetrahydronaphthalen-1-one (3w)], the IC50 is 2.4 µM in assay [1], 24.7 µM in assay [2], > 100 µM in assay [3] and > 100 µM in assay [4].

As to `COc1ccc(/C=C2\CCc3c(O)cccc3C2=O)c(Cl)c1OC` [(2E)-2-[(2-chloro-3,4-dimethoxyphenyl)methylidene]-5-hydroxy-1,2,3,4-tetrahydronaphthalen-1-one (3h)], the IC50 is > 100 µM in assay [1], > 100 µM in assay [2], > 100 µM in assay [3] and 48.9 µM in assay [4].

For `COc1cccc(/C=C2\CCc3c(OC)ccc(OC)c3C2=O)c1Cl` [(2E)-2-[(2-chloro-3-methoxyphenyl)methylidene]-5,8-dimethoxy-1,2,3,4-tetrahydronaphthalen-1-one (3v)], the IC50 was 13.2 µM in assay [1], > 100 µM in assay [2], > 100 µM in assay [3] and > 100 µM in assay [4].

As for `COc1cc(/C=C2\CCc3ccc(Br)cc3C2=O)c(Br)c(OC)c1OC` [(2E)-7-bromo-2-[(2-bromo-3,4,5-trimethoxyphenyl)methylidene]-1,2,3,4-tetrahydronaphthalen-1-one (3aa)], the IC50 is > 100 µM in assay [1], > 100 µM in assay [2], > 100 µM in assay [3] and 44.6 µM in assay [4].

Consider `COc1cccc2c1CC/C(=C\c1cc(OC)c(OC)c(OC)c1Br)C2=O` [(2E)-2-[(2-bromo-3,4,5-trimethoxyphenyl)methylidene]-5-methoxy-1,2,3,4-tetrahydronaphthalen-1-one (3r)], for which the IC50 in assay [1] is 67.2 µM; in assay [2] it was 92.5 µM; in assay [3] it was > 100 µM; in assay [4] it was 56 µM.

Values taken from BindingDB's records for doi:10.1111/cbdd.12822 (Wuhan University of Technology, 2016).
